This note sets out measurements from patent publication US5827837A, “Polyanion anti-inflammatory agents” (priority 1996, dated 1998).

Assay [1] addresses T1, L-selectin-lg fusion protein (Homo sapiens, UniProt P14151).
T1 construct: Each selectin-lg contains the lectin domain, epidermal growth factor domain, and one (L-selectin-lg), two (P-selectin-lg) or six (E-selectin-lg) complement regulatory repeats; made in house
As to the kind of experiment: Competition ELISA: binding of L-selectin-Ig to immobilized BSA-sLe^x. An excerpt: Selectin-lg fusion proteins are recombinant chimeric molecules containing extracellular regions of selectins coupled to the hinge, CH2, and CH3 regions of human IgG1 (Aruffo, A., et al., Cell, 67:35, 1991; Walz, G., et al., Science, 250:1132, 1990). Each selectin-lg contains the lectin domain, epidermal growth factor domain, and one (L-selectin-lg), two (P-selectin-lg) or six (E-selectin-lg) complement regulatory repeats of the parent molecules. DNAs encoding selectin-Ig inserted in pCDM7 allowed transient expression of recombinant proteins in COS cells as previously described (Seed, B., et al., Proc. Natl. Acad. Sci., U.S.A., 84:3365, 1987; Aruffo, A., Current Protocols In Molecular Biology, eds. Ausubel, F. M., et al, 16:13.1, Greene Publishing Associates and Wiley-lnterscience, New York, N.Y., 1992). These DNAs were also ligated into pNUT (Palmiter, R. D., et al, Cell, 50:435, 1987) for amplification and stable expression in BHK cells. The fusion proteins were affinity purified from culture media using protein A (Pierce Chemical Company, Rockford, Ill.) or protein G (Pharmacia, Piscataway, N.J.) Sepharose, as previously described (Aruffo, A., et al., Cell, 67:35, 1991; Aruffo, A., Current Protocols In Molecular Biology, eds. Ausubel, F. M., et al, supra, 1992). Competition binding ELISAs using P- and E-selectin-lg were performed essentially as described (Nelson, R. M., et al., J. Clin. […] Selectin concentrations were from 10 to 30 nM. […] To increase L-selectin binding, an assay similar to that previously described was used (Foxall, C., et al., J. Cell Biol., 117:895, 1992), in which the L-selectin-lg (10-20 nM) was allowed to form aggregates with HRP-conjugated anti-lg antibody for 30 minutes prior to addition of inositols and incubation on the BSA-sLe^x -coated plate. IC50 values were calculated by fitting binding data to the equation: fraction of maximal binding=IC50 […] using nonlinear least squares analysis software (Origin, Microcal Inc, Northampton, Mass.). InsP6 (dodecasodium salt), InsS6 (hexapotassium salt), myo-inositol 1 monophosphate (cyclohexylammonium salt), and myo-inositol were from Sigma Chemical Company (St. Louis, Mo.). Stock solutions were prepared daily in 0.9% NaCl and sterilized by 0.22 μm filtration. InsP6 solutions were adjusted at pH 7.4 with HCl.
L-, P-, or E-selectin-lg fusion proteins were incubated for 2-3 hours on microtiter plates coated with the neoglycoprotein BSA-sLe^x, the plates washed, and bound selectin-lg was detected using a peroxidase-conjugated antibody directed against the lg portion and a chromogenic substrate. To determine blocking activity, solution-phase lnsP6 (.circle-solid.), InsS6 (.largecircle.), or inositol (.box-solid.) at the indicated concentrations were added to the solutions containing selectin-Ig fusion proteins prior to transfer to microtiter plates (competition ELISA).
(In general: In an ELISA, binding on a coated surface is turned into a signal by an enzyme label.)

A further assay has as its system selectin. As to the kind of experiment: Selectin-sulfatide interactions. The assay is classed as binding.
Assay [2] addresses T1, L-selectin-lg fusion protein. As to the kind of experiment: LS 180 colon cancer cell adhesion to immobilized L-selectin-Ig. The assay is classed as cell-based. The protocol:
(§1) Cell adhesion assays on immobilized selectin-lg were performed essentially as described (Nelson, R. M., et al., J. Clin. Invest., 91:1157, 1993; Nelson, R. M., et al., Symposia on Quant. Biol., 57:271, 1992). Briefly, Nunclon Terasaki Microwell plates were coated overnight with 5 μl/well of a 5 μg/ml solution of protein A (Chemicon, Temecula, Calif.) in 50 mM carbonate buffer, pH 9.5. Protein-A-coated plates were washed with Dulbecco's phosphate buffered saline (PBS), incubated for 1 hour with L-, P-, or E-selectin-lg fusion proteins in PBS (5-20 μg/ml), washed again, and blocked with PBS containing 1% human serum albumin (HSA). To measure inhibition of cell adhesion, 5 μl/well of lnsP6 in PBS was added to the selectin-lg coated plates and incubated for 30 min at […]. LS 180 cells were harvested by brief trypsinization and resuspended at 1.5×10^6 cells/ml in PBS containing 1% HSA; five μl/well of suspension was added, and incubated for 30 min at 4° C. After washing to remove unbound cells, adherent cells were fixed with glutaraldehyde (2.5% in PBS) and counted. Symbols and error bars represent mean number of adherent cells/mm^2 ±s.e.m., counted in quadruplicate wells in a single experiment representative of three. No LS 180 cell adhesion was detected on plates coated with protein A alone, or on plates coated with protein A-captured CD8-lg fusion protein.
(§2) LS 180 cells (ATCC, Rockville, Md.) were added to cell culture wells containing protein A-captured selectin-lg fusion proteins and incubated for 30 min at 4° C. to allow adhesion. The plates were washed to remove unbound cells and adherent cells were counted microscopically. To determine adhesion blocking activity, InsP6 at the indicated concentrations was added to selectin-lg-coated wells 30 min prior to addition of LS 180 cells.

Assay [3] deals with T2, P-selectin-lg fusion protein (Homo sapiens, UniProt P16109).
T2 construct: Each selectin-lg contains the lectin domain, epidermal growth factor domain, and one (L-selectin-lg), two (P-selectin-lg) or six (E-selectin-lg) complement regulatory repeats; made in house
As to the kind of experiment: LS 180 colon cancer cell adhesion to immobilized P-selectin-Ig. The assay is classed as cell-based. The protocol: as §1, §2

Read-outs that look alike come from different tables or passages of the source.

As a reminder, the IC50 is the concentration needed to halve the response being measured. Regarding `O=P(O)(O)O[C@H]1[C@H](OP(=O)(O)O)[C@@H](OP(=O)(O)O)[C@H](OP(=O)(O)O)[C@@H](OP(=O)(O)O)[C@H]1OP(=O)(O)O` [InsP6, myo-inositol hexakisphosphate], in assay [1], the IC50 stood at 3.1 ± 0.5 µM. Also, the “blocking of L-selectin-Ig at reduced Ca^2+” value in assay [1] (Ca^2+ reduced to 0.15 mM) was “not enhanced”. In the assay on selectin, the “blocking of selectin-sulfatide interactions” value is given as “blocked selectin-sulfatide interactions at concentrations similar to those that were effective in blocking the binding to BSA-sLe^x”. Moreover, in assay [2], the “LS 180 adhesion to L-selectin-Ig” value is listed as “blocked the adhesion of LS 180 cells”. Moreover, the “LS 180 adhesion to P-selectin-Ig” value in assay [3] is “blocked the adhesion of LS 180 cells”.

What is called inhibition is the share of the control response that was lost under treatment. Low values mean a response near the control, high ones a response far below the control. With `O=S(=O)(O)O[C@H]1[C@H](OS(=O)(=O)O)[C@@H](OS(=O)(=O)O)[C@H](OS(=O)(=O)O)[C@@H](OS(=O)(=O)O)[C@H]1OS(=O)(=O)O` [InsS6, myo-inositol hexakissulfate], in assay [1] (BSA-sLe^x competition ELISA, read-out: IC50, L-selectin binding), the IC50 was determined as 210 ± 110 µM. The “blocking of selectin-sulfatide interactions” value in the assay on selectin is reported as “blocked selectin-sulfatide interactions at concentrations similar to those that were effective in blocking the binding to BSA-sLe^x”. In addition, the inhibition at 4000 µM is approximately 45% in assay [2] (LS180, 4 mM, single experiment) and approximately 45% in assay [3] (LS180, 4 mM, single experiment).

Regarding `O[C@H]1[C@H](O)[C@@H](O)[C@H](O)[C@@H](O)[C@H]1O` [myo-inositol, reference compound], the “blocking of L-selectin-Ig binding” value in assay [1] (BSA-sLe^x competition ELISA) is given as “not myo-isositol, blocked binding”. Further, in the assay with selectin, the “blocking of selectin-sulfatide interactions” value was “not inositol) blocked selectin-sulfatide interactions”. Further, the “LS 180 adhesion to L-selectin-Ig” value in assay [2] was “inactive at concentrations up to 5 mM”. Besides, the “LS 180 adhesion to P-selectin-Ig” value in assay [3] is “inactive at concentrations up to 5 mM”.
